Substitutions are numbered along the chain they refer to.
T1: human TRPML3 (Homo sapiens, UniProt Q8TDD5)
T1 construct: expressed in transfected cells
T1 sequence (Q8TDD5 1-553): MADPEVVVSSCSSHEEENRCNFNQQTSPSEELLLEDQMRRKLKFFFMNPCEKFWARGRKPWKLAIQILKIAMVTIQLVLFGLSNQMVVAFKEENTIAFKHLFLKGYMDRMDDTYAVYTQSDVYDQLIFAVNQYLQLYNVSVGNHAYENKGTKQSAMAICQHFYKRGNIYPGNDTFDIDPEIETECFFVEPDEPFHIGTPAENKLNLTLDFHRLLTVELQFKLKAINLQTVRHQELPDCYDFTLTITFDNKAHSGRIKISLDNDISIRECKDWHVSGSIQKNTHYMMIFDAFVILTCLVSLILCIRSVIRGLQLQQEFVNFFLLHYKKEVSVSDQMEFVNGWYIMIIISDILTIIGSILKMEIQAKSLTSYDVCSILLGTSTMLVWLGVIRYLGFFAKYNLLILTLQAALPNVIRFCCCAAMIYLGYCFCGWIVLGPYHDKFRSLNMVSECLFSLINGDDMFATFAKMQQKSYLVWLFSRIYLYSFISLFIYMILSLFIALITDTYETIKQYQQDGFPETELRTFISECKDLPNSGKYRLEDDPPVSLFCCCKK

T2: A419P TRPML3 (Homo sapiens, UniProt Q8TDD5, A419P)
T2 construct: expressed in transfected cells
T2 sequence (Q8TDD5 1-553 A419P): T1 sequence (Q8TDD5 1-553) with A419P

T3: Homo sapiens TRPML3 A419P, expressed in HEK293 cells (human, UniProt Q8TDD5 1-553)
T3 sequence: T1 sequence (Q8TDD5 1-553) with A419P

B1: Homo sapiens TRPML3 (NM_018298), wild-type, non codon optimized cDNA, expressed in HEK293 cells (other)
chain: T1 sequence (Q8TDD5 1-553)

Assays:
[1] = system: human salty taste (sodium chloride taste intensity); conditions: concentrations that specifically modulate ENaC function; cited from earlier work
[2] = target: T1, human TRPML3; experiment: Whole cell patch clamp electrophysiology of cells expressing human TRPML3; assay type: cell-based
Source text: The whole cell voltage clamp technique is an electrophysiology method that measures the macroscopic electrical current flowing across the entire plasma membrane though protein channels. Live mammalian cells are placed in a special microscope chamber containing extracellular solution. Guided by a micromanipulator and under visual control, a small diameter glass pipette filled with an electrically conductive salt solution is first attached to the cell membrane using gentle negative pressure resulting in a high resistance gigaOhm seal. The membrane patch within the pipette is disrupted using further suction resulting in the whole cell patch clamp configuration. The whole cell patch clamp configuration allows the combined measurement of all ion channels proteins within the membrane or macroscopic current. Using the patch clamp amplifier in combination with the whole-cell patch clamp configuration allows the operator to control the voltage, or potential difference across the entire cell membrane, as well as the both the internal and external ionic composition of the cell. […]

[3] = target: T2, A419P TRPML3; experiment: FLIPR membrane potential dye assay, HEK293 cells expressing A419P-TRPML3; assay type: cell-based; conditions: amiloride
Source text: Specific cell-based assays for the discovery of TRPML3 modulators were developed which that could ultimately be used in food and beverages to modulate saltiness perception. A419P-TRPML3 function was monitored in HEK293 cells transiently transfected or transduced with the gene encoding A419P-TRPML3 and using specific membrane potential dyes (FMPs; Molecular Devices).
(§1) HEK293 cells were transiently transfected with RFP, αENaC or A419P-TRPML3 and were loaded with a membrane potential dye (R-8034; Molecular Devices) in HBSS at room temperature for 30 minutes. Membrane potential (fluorescent signal) was monitored on a FLIPR system (Molecular Devices).
(§2) HEK293 cells were transiently transfected with RFP or A419P-TRPML3 and were loaded with a membrane potential dye (R-8034; Molecular Devices) in HBSS at room temperature for 30 minutes. Membrane potential (fluorescent signal) was monitored on a FLIPR system (Molecular Devices).
as §2, with “HBSS, NMDG and increasing concentrations of gadolinium were added to the cells and resulting changes in membrane” for “Membrane”
as §1, with “RFP, A419P-TRPML3 or” for “RFP,”, “plasmid” for “or A419P-TRPML3”, “HBSS (control), 3 mM gadolinium and 30 uM Amiloride were added to the cells and resulting changes in membrane” for “Membrane”

[4] = target: T4, αENaC (Homo sapiens, UniProt P37088); experiment: FLIPR membrane potential dye assay, HEK293 cells transfected with αENaC; assay type: cell-based; conditions: 30 uM Amiloride; αENaC versus A419P-TRPML3 transfected cells
T4 construct: expressed in transfected cells; host or cells: HEK293, transient transfection
Method: as §1
as §1, with “RFP, A419P-TRPML3 or” for “RFP,”, “plasmid” for “or A419P-TRPML3”, “HBSS (control), 3 mM gadolinium and 30 uM Amiloride were added to the cells and resulting changes in membrane” for “Membrane”

[5] = system: human salty taste (sodium chloride taste intensity); experiment: Human salty taste perception (perceived salt intensity); assay type: in vivo; conditions: tested at 300-fold (amiloride) and 3000-fold above IC50 values for alpha beta gamma ENaC
Source text: Unlike other mammals, amiloride only slightly reduces the intensity of sodium chloride taste, i.e., by about 15-20% when used at concentrations that specifically modulate ENaC function (Halpern, B. P. (1998) Neuroscience and Behavioral Reviews. 23: 5-47). […] Based thereon, it was theorized that other (ENaC genes) were involved in human salty taste perception.

[6] = target: T3, Homo sapiens TRPML3 A419P, expressed in …; experiment: cell-based or functional assay

T4 sequence (P37088 whole entry): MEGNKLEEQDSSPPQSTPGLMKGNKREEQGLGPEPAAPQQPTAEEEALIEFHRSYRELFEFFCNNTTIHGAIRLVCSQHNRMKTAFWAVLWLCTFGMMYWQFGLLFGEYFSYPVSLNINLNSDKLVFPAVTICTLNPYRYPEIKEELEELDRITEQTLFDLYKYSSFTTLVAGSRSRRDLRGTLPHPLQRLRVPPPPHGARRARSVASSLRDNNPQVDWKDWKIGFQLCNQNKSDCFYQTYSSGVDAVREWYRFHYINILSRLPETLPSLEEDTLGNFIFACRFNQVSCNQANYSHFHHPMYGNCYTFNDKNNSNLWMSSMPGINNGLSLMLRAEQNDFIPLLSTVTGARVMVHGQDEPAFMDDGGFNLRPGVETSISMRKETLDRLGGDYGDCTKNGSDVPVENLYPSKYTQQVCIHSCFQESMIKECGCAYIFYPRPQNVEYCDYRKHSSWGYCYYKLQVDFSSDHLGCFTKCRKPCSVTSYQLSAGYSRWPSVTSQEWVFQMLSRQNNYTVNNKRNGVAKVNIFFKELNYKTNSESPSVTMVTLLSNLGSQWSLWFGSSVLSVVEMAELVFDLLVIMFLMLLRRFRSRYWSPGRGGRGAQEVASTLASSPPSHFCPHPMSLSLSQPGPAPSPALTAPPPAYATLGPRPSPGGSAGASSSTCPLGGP

Molecule	reduction of the intensity of sodium chloride taste [1]	block of TRPML3 sodium conductance (current-voltage curves) ([2]; 30 uM amiloride)	block of TRPML3 ([2]; no concentration given)	effect on the increased basal fluorescence elicited by A419P-TRPML3 [3]	effect on basal fluorescence counts, specificity [4]	effect on perceived human salt intensity [5]	inward currents, whole cell patch clamp, HEK293 cells coexpressing A419P (0.5 ug) and WT (1.5 ug) TRPML3 cDNAs [6]
N=C(N)NC(=O)c1nc(Cl)c(N)nc1N [amiloride]	15-20%	not blocked	not blocked	no effect	preferentially reduces basal fluorescence counts	did not elicit a significant effect	
NC(=Nc1ccccc1)NC(=O)c1nc(Cl)c(N)nc1N [phenamil]						did not elicit a significant effect	
B1							2 fold against A419P cDNA alone
